Columns and labels:
[1] = test system: DNA damage-induced cell cycle arrest; assay: Cell cycle analysis: abrogation of DNA damage-induced cell cycle arrest; assay type: cell-based; conditions: for G2 arrest caused by the compound itself: compound alone / at concentrations capable of abrogating arrest
Protocol: Experiments of cell cycle analysis were conducted in accordance with procedures described by […] et al. Cell Growth and Differ. 1994 5:983-993; Bunch, R. T. and Eastman, A. […] T. and Eastman, A. Cell Growth and Differ. 1997 8:779-788.

[2] = test system: DNA damage-induced cell cycle arrest; assay: Cell cycle arrest abrogation in the presence of human plasma / plasma proteins; assay type: cell-based; conditions: human plasma / human plasma proteins added
Protocol: However, in K252a the hexose. moiety is replaced with a pentose moiety. […] It is believed that the pentose ring of this structure prevents binding of this compound to human plasma proteins.
Experiments of cell cycle analysis were conducted in accordance with procedures described by Demarcq et al. Cell Growth and Differ. 1994 5:983-993; Bunch, R. T. and Eastman, A. Clinical Cancer Research 1996 2:791-7; and Bunch, R. T. and Eastman, A. Cell Growth and Differ. 1997 8:779-788.

[3] = test system: p53 defective human breast cancer cells lines, MDA-MD-231 and T47D; assay: Selectivity of arrest abrogation for p53 defective cell lines; assay type: cell-based
Protocol: The breast cancer cell lines were obtained from the American Type Culture Collection (Rockville, Md.). The cells were maintained in Dulbecco's modified Eagle's Medium supplemented with 10% fetal bovine serum, penicillin (100 units/ml), streptomycin (100 μg/ml) and fungizone (0.25 μg/ml).

[4] = test system: G2 checkpoint activated by DNA damage; conditions: literature; UCN-01: noncytotoxic doses, cisplatin; cited from earlier work
[5] = test system: Chinese hamster ovary cells; conditions: Chinese hamster ovary cells incubated with cisplatin; cited from earlier work
human cells = conditions: cited from earlier work
[6] = test system: human prostate carcinoma cells; conditions: cited from earlier work

SMILES: COC(=O)[C@@]1(O)CC2O[C@]1(C)n1c3ccccc3c3c4c(c5c6ccccc6n2c5c31)C(=O)NC4=O [ICP1]
- G2 arrest caused by the compound itself [1]: does not cause G2 arrest
- abrogation of cell cycle arrest ([1]; non-toxic concentrations): abrogates cell cycle arrest at non-toxic concentrations
- activity (abrogation of cell cycle arrest) in the presence of human plasma [2]: maintain its ability to abrogate cell cycle arrest
- selectivity of abrogation of cell arrest for p53 defective cell lines [3]: selective for p53 defective cell lines

SMILES: CN[C@@H]1C[C@H]2O[C@@](C)([C@@H]1OC)n1c3ccccc3c3c4c(c5c6ccccc6n2c5c31)C(=O)N[C@H]4O [UCN-01, 7-hydroxystaurosporine]
- abrogation of G2 checkpoint / G2 arrest after DNA damage [4]: abrogate the G2 arrest
- abrogation of S-phase arrest [5]: abrogates this S-phase arrest
- abrogation of S phase arrest (human cells): Abrogation of S phase arrest has also been observed

SMILES: COC[C@@H]([C@H](O)[C@H](O)C(=O)NCC[C@H](C)c1nc(/C=C/C[C@@H]2O[C@]3(C[C@@H](O)[C@@H]2C)O[C@H]([C@H](C[C@H](O)[C@H](C)[C@H](O)[C@H](C)/C=C(C)/C(C)=C/C=C/C(C)=C\C#N)OC)[C@H](OP(=O)(O)O)C3(C)C)co1)N(C)C [calyculin A]
- abrogation of G2 checkpoint / G2 arrest after DNA damage [4]: abrogate the G2 checkpoint

SMILES: CN[C@@H]1C[C@H]2O[C@@](C)([C@@H]1OC)n1c3ccccc3c3c4c(c5c6ccccc6n2c5c31)C(=O)NC4 [staurosporine]
- abrogation of G2 checkpoint / G2 arrest after DNA damage [4]: abrogate the G2 checkpoint

SMILES: COC(=O)[C@@]1(O)CC2O[C@]1(C)n1c3ccccc3c3c4c(c5c6ccccc6n2c5c31)C(=O)NC4 [K252a]
- abrogation of cell cycle arrest in the G2 phase ([1]; G2 phase): does not abrogate cell cycle arrest in the G2 phase
- abrogation of cell cycle arrest in the S phase ([1]; S phase): only abrogates cell cycle arrest in the S phase
- G2 arrest caused by the compound itself [1]: causes G2 arrest
- activity (abrogation of cell cycle arrest) in the presence of human plasma [2]: not inhibited
- inhibition of growth of human prostate carcinoma cells [6]: inhibit the growth

SMILES: C=C1[C@@H](O)[C@@H]2O[C@]3(CC[C@H](/C=C/[C@@H](C)[C@@H]4CC(C)=C[C@@]5(O[C@H](C[C@@](C)(O)C(=O)O)CC[C@H]5O)O4)O3)CC[C@H]2O[C@@H]1[C@@H](O)C[C@H](C)[C@H]1O[C@@]2(CCCCO2)CC[C@H]1C [okadaic acid]
- abrogation of G2 checkpoint / G2 arrest after DNA damage [4]: abrogate the G2 checkpoint

SMILES: C[C@@](O)(/C=C/[C@H]1CC=CC(=O)O1)[C@@H](C[C@@H](O)\C=C/C=C\C=C\CO)OP(=O)(O)O [fostriecin]
- abrogation of G2 checkpoint / G2 arrest after DNA damage [4]: abrogate the G2 checkpoint

SMILES: CC(=O)CCCCn1c(=O)c2c(ncn2C)n(C)c1=O [pentoxifylline]
- abrogation of G2 checkpoint / G2 arrest after DNA damage [4]: abrogate the G2 checkpoint

Source: patent US6472385B1, “Compositions and methods to enhance cancer chemotherapy in p53 defective tumors” (priority 1999, dated 2002)
